Three compounds from patent US20070258912A1, “Use of Fluorescent Whitening Agents as Antimicrobials” (priority 2004, published 2007) can be followed below.

Read-outs that look alike come from different tables or passages of the source.

Type in all cases: cell-based
Experiment [1] relates to Corynebacterium minutissimum. The experiment is described as follows: MIC in the agar incorporation test. Conditions: read-out: MIC Corynebacterium minutissimum.
Another experiment has as its system Prevotella nigrescens. In words: MIC against oral microorganisms via broth dilution. The protocol: (§1) Determination of the Minimum Inhibition Concentration (MIC Value) Against Different Oral Microorganisms Via Broth Dilution
(§2) 1500 ppm stock solutions of the substances are prepared in ethanol and pipetted into the growth medium to yield concentrations between 0.94 and 15 ppm. Bacteria are taken from blood agar plates with cotton swabs and adjusted in the appropriate growth medium to yield an optical density corresponding to McFarland 0.5. This suspension is directly used in the case of F. nucleatum and P. nigrescens. For the other strains, the suspension is diluted 1:20. 0.1 ml of these bacterial suspensions are added to 2 ml of the substance solutions. After the incubation time, the tubes are assessed for growth (turbidity).
(§3) Test Organisms: *Actinobacillus actinomycetemcomitans ATCC 43718 *Stretococcus gordonii ATCC 10558 *Streptococcus mutans ATCC 33402 Actinomyces viscosus ATCC 43146 Fusobacterium nucleatum subsp. polymorphum ATCC 10953 Porphyromonas gingivalis ATCC 33277
(§4) Prevotella nigrescens ATCC 33563

Experiment [2] relates to Actinobacillus actinomycetemcomitans. In words: MIC against oral microorganisms via broth dilution. Conditions: Aggregatibacter actinomycetemcomitans, ATCC43718; broth dilution 0.94-15 ppm, 24 h aerobically with 10% CO2, ATCC 43718. The method, then: as §1, §2, §3, §4
A general note: Dilution methods test growth across graded concentrations, often in twofold steps.

The subject of another experiment is Streptococcus gordonii. The experiment is described as follows: MIC against oral microorganisms via broth dilution. The protocol: as §1, §2, §3, §4
The subject of experiment [3] is Actinomyces viscosus. The experiment is described as follows: MIC against oral microorganisms via broth dilution. The method, then:
as §1, §2, §3, §4

In another experiment the test system is Porphyromnas gingivalis. In words: MIC against oral microorganisms via broth dilution. As to conditions: read-out: MIC Porphyromnas gingivalis. The protocol:
as §1, §2, §3, §4

The test system of experiment [4] is Fusobacterium nucleatum subsp. polymorphum. In words: MIC against oral microorganisms via broth dilution. As to conditions: ATCC10953, broth dilution 0.94-15 ppm, 7-10 days at 37° C. anaerobically, ATCC 10953, read-out: MIC Fusobacterium nucleatum subsp. polymorphum. The protocol:
as §1, §2, §3, §4

For another experiment, the system named is Streptococcus mutans. The experiment is described as follows: MIC against oral microorganisms via broth dilution. The method, then:
as §1, §2, §3, §4

Experiment [5] concerns Corynebacterium xerosis. In words: MIC in the agar incorporation test. The protocol:
(§5) Determination of Minimum Inhibitory Concentration (MIC Values) in the Agar Incorporation Test
(§6) 1% stock solutions of the substances are prepared in an appropriate solvent and diluted in serial dilutions 1:2 (to yield end concentrations in the agar of 500-1.9 ppm). 0.3 ml of each dilution step is mixed with 15 ml of nutrient medium while the latter is still liquid. After the nutrient medium has solidified, 10 μl of each test strain in 0.85% NaCl solution are spotted onto the agar medium.
(§7) The plates are incubated at 37° C. for 24 hours and then the highest dilution (lowest concentration) of the test substance at which growth is no longer observable is determined.
(§8) Test Organisms: Staphylococcus aureus ATCC 6583 Staphylococcus epidermidis ATCC 12228 Corynebacterium xerosis ATCC 373 Propionibacterium acnes ATCC Escherichia coli ATCC 10536 Salmonella choleraesuis ATCC Klebsiella pneumoniae ATCC *Candida albicans ATCC 10231
(§9) *Aspergillus niger ATCC 6275

The subject of another experiment is Staphylococcus epidermis. In words: MIC in the agar incorporation test. The method, then: as §5, §6, §7, §8, §9
Experiment [6] relates to Staphylococcus aureus. The experiment is described as follows: MIC in the agar incorporation test. The method, then: as §5, §6, §7, §8, §9
The next experiment relates to Klebsiella pneumoniae. In words: MIC in the agar incorporation test. As to conditions: Mueller Hinton agar, 24 hours at 37° C. The protocol:
as §5, §6, §7, §8, §9

Another experiment concerns Propionibacterium acnes. In words: MIC in the agar incorporation test. As to conditions: Cutibacterium acnes, read-out: MIC Propionibacterium acnes. The method, then: as §5, §6, §7, §8, §9
The test system of experiment [7] is Actinomyces viscosus ATCC 43146. The experiment is described as follows: Substantivity on hydroxyapatite and growth inhibition. Conditions: 500 ppm ethanolic solution; discs pretreated with artificial saliva; 6 and 24 hours at 37° C.; vs untreated control. The method, then: Hydroxyapatite discs are incubated in artificial saliva (German Dental Magazine DZZ 5/2002) for 4 hrs under stirring, rinsed in NaCl, dried over night, and then incubated in ethanolic solutions of the test substances. Then all treated discs are put in 12 well Nucleon surface titre plates (one disc per well), and Caso Broth inoculated with the test strain. The titre plates are incubated at 37° C., samples are taken after 6 and 24 hrs and the colony count is determined by plate count.

In experiment [8] the test system is Corynebacterium xerosis. The experiment is described as follows: Microbicidal activity (suspension test, plate count). As to conditions: 120 ppm, ATCC 373. The method, then:
(§10) Determination of Microbicidal Activity
(§11) 1 g stock solution with an appropriate concentration of test products are mixed with 8 g water and then inoculated with 1 ml of the selected test organisms. After a given contact period, aliquots are taken, inactivated and diluted. The number of surviving bacteria per ml incubation assay is determined by plate count. Proper inactivation by the inactivating medium used was checked each time.
(§12) Diluent: tryptone water for microorganisms
(§13) • (0.1% tryptone (Oxoid), 0.85% NaCl, deion. water) • deion. water for test substances • inactivating medium for detection of surviving microorganisms Growth medium: casein soybean peptone agar Inactivating Medium: tryptic soy broth special • (10% w/w Tween 80, 3% w/w Lecithine, 0.1% w/w L-Histidine, • 0.055% w/w Sodium thiosulfate) Test organisms: Staphylococcus aureus ATCC 6538 • Escherichia coli ATCC 10536 • Actinomyces viscosus ATCC 43146 • Corynebacterium xerosis ATCC 373 Test concentration: 120 ppm and 1200 ppm Contact times: 5 and 30 minutes at 22° C.
(§14) Incubation time: 24 h at 37° C.

Experiment [9] relates to Actinomyces viscosus. Described as above. As to conditions: 120 ppm, ATCC 43146. The method, then: as §10, §11, §12, §13, §14
Experiment [10] concerns Staphylococcus aureus. The description is as above. Conditions: 120 ppm, ATCC 6538. The method, then: as §10, §11, §12, §13, §14
Experiment [11] relates to Escherichia coli. Described as above. Conditions: 120 ppm, ATCC 10536. The method, then:
as §10, §11, §12, §13, §14

In experiment [12] the test system is Escherichia coli. The experiment is described as follows: MIC in the agar incorporation test. Conditions: ATCC10536, agar incorporation, Mueller Hinton agar, 24 hours at 37° C., ATCC 10536, read-out: MIC Escherichia coli. The method, then:
as §5, §6, §7, §8, §9

For a further experiment, the system named is Salmonella choleraesuis. The experiment is described as follows: MIC in the agar incorporation test. Conditions: Salmonella enterica, Mueller Hinton agar, 24 hours at 37° C. The protocol:
as §5, §6, §7, §8, §9

The mark [13] stands for this setting: agar incorporation, Mueller Hinton agar, 24 hours at 37° C.
Setting [14] is: ATCC33563, broth dilution 0.94-15 ppm, Columbia bouillon, 7-10 days at 37° C. anaerobically, ATCC 33563, read-out: MIC Prevotella nigrescens.
Where [15] appears, read: ATCC10558, broth dilution 0.94-15 ppm, 24 h aerobically with 10% CO2, ATCC 10558, read-out: MIC Streptococcus gordonii.
Where [16] appears, read: ATCC43146, broth dilution 0.94-15 ppm, 7-10 days at 37° C. anaerobically, ATCC 43146, read-out: MIC Actinomyces viscosus.
Where [17] appears, read: broth dilution 0.94-15 ppm, Columbia bouillon, 7-10 days at 37° C. anaerobically, ATCC 33277.
Setting [18] is: ATCC33402, broth dilution 0.94-15 ppm, 24 h aerobically with 10% CO2, ATCC 33402, read-out: MIC Streptococcus mutans.
Setting [19] is: ATCC373, agar incorporation, Mueller Hinton agar, 24 hours at 37° C., ATCC 373, read-out: MIC Corynebacterium xerosis.
[20] abbreviates: ATCC12228, agar incorporation, Mueller Hinton agar, 24 hours at 37° C., ATCC 12228, read-out: MIC Staphylococcus epidermis.
Setting [21] is: ATCC6583, agar incorporation, Mueller Hinton agar, 24 hours at 37° C., ATCC 6583, read-out: MIC Staphylococcus aureus.

For `CCN(CC)CCOc1ccccc1/C=C/c1ccc(/C=C/c2ccccc2OCCN(CC)CC)cc1` [formula 24], the MIC turned out to be 3.8 µg/mL in experiment [1] (setting [13]); 1.9 µg/mL in the experiment on Prevotella nigrescens (setting [14]); 15 µg/mL in experiment [2]; 7.5 µg/mL in the experiment with Streptococcus gordonii (setting [15]); 3.75 µg/mL with Actinomyces viscosus [3] (setting [16]); 1.9 µg/mL in the experiment with Porphyromnas gingivalis (setting [17]). Moreover, the MIC worked out at 15 µg/mL in [4]; 7.5 µg/mL in the experiment with Streptococcus mutans (setting [18]); 3.8 µg/mL with Corynebacterium xerosis [5] (setting [19]); 7.5 µg/mL with Staphylococcus epidermis (setting [20]); 7.5 µg/mL in the experiment on Staphylococcus aureus [6] (setting [21]); 120 µg/mL against Klebsiella pneumoniae. In the experiment with Propionibacterium acnes (setting [13]), the MIC is 3.8 µg/mL. For the same compound, the “Growth inhibition of Actinomyces viscosus after adsorption on hydroxyapatite discs” value in [7] is “growth inhibition”.
As for `Cc1ccc(/C=C/c2ccc(/C=C/c3cccc(OCCCN(C)C)c3)cc2)c(OCCN(C)C)c1` [formula 29], the MIC in [1] (setting [13]) is 6.3 µg/mL; in the experiment on Prevotella nigrescens (setting [14]) it was 1.9 µg/mL; in experiment [2] it was 7.5 µg/mL; in the experiment on Streptococcus gordonii (setting [15]), 7.5 µg/mL; in the experiment with Actinomyces viscosus [3] (setting [16]) it was 3.8 µg/mL; in the experiment on Porphyromnas gingivalis (setting [17]), 1.9 µg/mL. In addition, the MIC in experiment [4] turned out to be 3.8 µg/mL; in the experiment on Streptococcus mutans (setting [18]) it was 3.8 µg/mL; in the experiment on Corynebacterium xerosis [5] (setting [19]) it was 3.1 µg/mL; in the experiment with Staphylococcus epidermis (setting [20]), 3.1 µg/mL; with Staphylococcus aureus [6] (setting [21]), 3.1 µg/mL; against Klebsiella pneumoniae it was 25 µg/mL. Also, the MIC in the experiment on Propionibacterium acnes (setting [13]) was determined as 3.1 µg/mL; with Escherichia coli [12], 200 µg/mL; against Salmonella choleraesuis it was 200 µg/mL. Also, the “Microbicidal activity Corynebacterium xerosis 120 ppm/5 min” value in the experiment with Corynebacterium xerosis [8] (5 min contact at 22° C.) stood at 5 log reductions. Also, in the experiment on Corynebacterium xerosis [8] (30 min contact at 22° C.), the “Microbicidal activity Corynebacterium xerosis 120 ppm/30 min” value stood at 5 log reductions. In the experiment on Actinomyces viscosus [9] (5 min contact at 22° C.), the “Microbicidal activity Actinomyces viscosus 120 ppm/5 min” value is on record as 2.5 log reductions. In the experiment with Actinomyces viscosus [9] (30 min contact at 22° C.), the “Microbicidal activity Actinomyces viscosus 120 ppm/30 min” value is 5 log reductions. For the same compound, the “Microbicidal activity Staphylococcus aureus 120 ppm/5 min” value in the experiment on Staphylococcus aureus [10] (5 min contact at 22° C.) worked out at 3 log reduction. Further, in the experiment with Staphylococcus aureus [10] (30 min contact at 22° C.), the “Microbicidal activity Staphylococcus aureus 120 ppm/30 min” value amounted to 5 log reduction. Further, the “Microbicidal activity Escherichia coli 120 ppm/5 min” value in the experiment with Escherichia coli [11] (5 min contact at 22° C.) is 5 log reduction. Moreover, the “Microbicidal activity Escherichia coli 120 ppm/30 min” value in the experiment on Escherichia coli [11] (30 min contact at 22° C.) came to 5 log reduction.
`CC[N+](C)(C)CCCOc1ccccc1/C=C/c1ccc(-c2ccc(/C=C/c3ccccc3OCCC[N+](C)(C)CC)cc2)cc1` [formula 33]: the MIC in experiment [1] (24 h) was determined as 7.8 µg/mL; in the experiment with Prevotella nigrescens (ATCC33563, read-out: MIC Prevotella nigrescens), 3.75 µg/mL; in the experiment on Streptococcus gordonii (ATCC10558, 24 h, read-out: MIC Streptococcus gordonii) it was 3.75 µg/mL; in the experiment on Actinomyces viscosus [3] (ATCC43146, read-out: MIC Actinomyces viscosus), 3.8 µg/mL; in the experiment on Porphyromnas gingivalis, 15 µg/mL; in the experiment on Streptococcus mutans (ATCC33402, 24 h, read-out: MIC Streptococcus mutans), 1.88 µg/mL. Also, the MIC was determined as 31.3 µg/mL with Corynebacterium xerosis [5] (ATCC373, 24 h, read-out: MIC Corynebacterium xerosis); 3.9 µg/mL with Staphylococcus epidermis (ATCC12228, 24 h, read-out: MIC Staphylococcus epidermis); 3.9 µg/mL in the experiment on Staphylococcus aureus [6] (ATCC6583, 24 h, read-out: MIC Staphylococcus aureus); 3.9 µg/mL with Propionibacterium acnes (24 h). For the same compound, the “Growth inhibition of Actinomyces viscosus after adsorption on hydroxyapatite discs” value in [7] is on record as “growth inhibition”.
